Patent US20050069887A1, “Dna synthesis promoters dna polymerase-associated factors and utilization thereof” (priority 2001, published 2005)
Like-named read-outs stand apart in the source and are kept apart here.

Columns and labels:
[1] = tested on: EX-Taq DNA polymerase; assay: PCR using EX-Taq DNA polymerase with added salts (Examples 1-1 to 1-3); format: biochemical
Description: The effect produced by the addition of oxalate ions was investigated in the PCR using EX-Taq DNA polymerase. A PCR buffer supplied with EX-Taq (TAKARA) and 0.3 μM of a pair of primers of SEQ ID Nos:8 and 9 and 0.2 mM dNTPs were used. PCR was performed by using 1.0 U EX-Taq DNA polymerase and 20 ng of genomic DNA derived from human cell line K562 as a template, with the influence on the PCR result caused by varying the concentration of added oxalate ion being investigated. The PCR conditions were as follows: 1 preliminary reaction of 94° C. for 2 minutes, and then 35 cycles of 94° C. for 15 seconds, 60° C. for 30 seconds and 68° C. for 8.5 minutes. This PCR amplification was performed by using GeneAmp2400 (PE Applied Biosystems).
Salts (potassium chloride, potassium acetate, potassium oxalate, sodium oxalate, potassium sulfate) were investigated for their effectiveness in PCR using EX-Taq DNA polymerase under the same conditions as Example 1. Each salts was used in an amount of 4 to 6 mM of ion equivalent

[2] = biological target: T1, KOD-plus DNA polymerase (Thermococcus kodakarensis, UniProt P77933, DEL407-766/DEL853-1389); format: biochemical, Thermococcus kodakaraensis KOD1; conditions: for effect on extra bands: FIG. 10; for amplification of target DNA (electrophoresis pattern): salt at 6 mM of ion equivalent, FIG. 9
T1 construct: purchased Toyobo
T1 sequence (P77933 other isoform, or with tags, fused parts or gaps DEL407-766/DEL853-1389): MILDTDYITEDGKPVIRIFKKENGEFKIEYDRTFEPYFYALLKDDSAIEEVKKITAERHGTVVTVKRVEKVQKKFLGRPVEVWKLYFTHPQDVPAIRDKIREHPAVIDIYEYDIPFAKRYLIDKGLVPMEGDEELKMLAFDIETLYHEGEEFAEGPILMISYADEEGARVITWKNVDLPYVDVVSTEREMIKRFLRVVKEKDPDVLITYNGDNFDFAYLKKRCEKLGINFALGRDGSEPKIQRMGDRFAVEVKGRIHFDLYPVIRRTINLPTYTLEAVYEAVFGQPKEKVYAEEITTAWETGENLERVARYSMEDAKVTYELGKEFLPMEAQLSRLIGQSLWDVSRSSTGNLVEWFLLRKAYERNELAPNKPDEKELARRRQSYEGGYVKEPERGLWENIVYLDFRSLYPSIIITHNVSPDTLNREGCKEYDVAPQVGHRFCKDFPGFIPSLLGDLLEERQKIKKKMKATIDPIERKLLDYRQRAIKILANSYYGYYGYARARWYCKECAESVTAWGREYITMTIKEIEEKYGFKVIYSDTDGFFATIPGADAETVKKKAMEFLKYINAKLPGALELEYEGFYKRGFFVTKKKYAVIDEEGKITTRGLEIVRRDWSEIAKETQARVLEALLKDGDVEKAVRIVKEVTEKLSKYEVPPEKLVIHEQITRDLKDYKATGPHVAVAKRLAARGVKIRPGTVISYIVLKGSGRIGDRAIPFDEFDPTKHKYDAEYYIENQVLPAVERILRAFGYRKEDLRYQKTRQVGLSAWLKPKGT

[3] = biological target: T1, KOD-plus DNA polymerase; format: biochemical, Thermococcus kodakaraensis KOD1
Description: The effect produced by the addition of oxalate ion to a hot start enzyme was investigated using a hot start enzyme KOD-plus DNA polymerase containing KOD α-type enzyme) and two kinds of KOD antibodies. The PCR buffer supplied with KOD-plus (manufactured by Toyobo), 0.2 mM dNTPs and 0.3 μM of a primer pair of SEQ ID Nos:8 and 9 were used. PCR was performed using 2.5 U KOD-plus DNA polymerase and 20 ng of Genomic DNA derived from human cell line K562 as a template to investigate the influence of varying the concentration of oxalate ion added on the PCR results. The PCR conditions were as follows: 1 preliminary reaction of 94° C. for 2 minutes, and then 35 cycles of 94° C. for 15 seconds, 60° C. for 30 seconds and 68° C. for 8.5 minutes. The PCR was performed using GeneAmp2400 (PE Applied Biosystems).

[4] = biological target: T2, nPfu DNA polymerase (Pyrococcus furiosus, UniProt P61875); assay: PCR using nPfu DNA polymerase with added salts (Examples 1-5, 1-6); format: biochemical; conditions: for amplification of target DNA (electrophoresis pattern): salt at 4-6 mM of ion equivalent, FIG. 7
T2 construct: α-Type Enzyme (Native Pfu); purchased STRATAGENE
T2 sequence (P61875 1-775): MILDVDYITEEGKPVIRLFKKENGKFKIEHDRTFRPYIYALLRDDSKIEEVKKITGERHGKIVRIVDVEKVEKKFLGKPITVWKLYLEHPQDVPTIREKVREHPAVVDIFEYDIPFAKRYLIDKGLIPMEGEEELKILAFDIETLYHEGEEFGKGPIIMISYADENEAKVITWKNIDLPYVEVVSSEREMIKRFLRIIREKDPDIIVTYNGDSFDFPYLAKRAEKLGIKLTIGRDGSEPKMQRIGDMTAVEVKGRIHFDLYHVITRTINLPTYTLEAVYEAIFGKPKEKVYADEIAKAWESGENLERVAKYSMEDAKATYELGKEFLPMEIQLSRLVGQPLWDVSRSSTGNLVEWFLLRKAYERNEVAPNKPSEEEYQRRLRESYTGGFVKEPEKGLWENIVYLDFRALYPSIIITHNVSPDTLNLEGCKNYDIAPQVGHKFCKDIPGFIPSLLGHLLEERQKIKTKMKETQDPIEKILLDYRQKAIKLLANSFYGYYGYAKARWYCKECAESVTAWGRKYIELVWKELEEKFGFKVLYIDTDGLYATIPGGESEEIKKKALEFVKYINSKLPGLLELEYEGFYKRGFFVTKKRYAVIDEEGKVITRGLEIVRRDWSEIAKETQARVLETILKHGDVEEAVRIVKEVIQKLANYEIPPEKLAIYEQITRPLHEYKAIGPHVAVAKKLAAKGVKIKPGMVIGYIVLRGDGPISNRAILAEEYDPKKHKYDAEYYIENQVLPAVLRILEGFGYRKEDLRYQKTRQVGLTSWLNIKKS
Description: The effect produced by the addition of oxalate ion in PCR was investigated using nPfu polymerase. A PCR buffer (20 mM Tris-HCl (pH 8.75), 10 mM KCl, 10 mM (NH4) 2SO4, 2 mM MgSO4, 0.1% Triton X-100, 100 μg/ml BSA) attached to nPfu (STRATAGENE), 0.2 mM of dNTPs, and 0.3 μM of a pair of primers of SEQ ID NOs:12, and 13 were used. PCR was performed by using 2.5 U nPfu DNA polymerase and 20 ng of genomic DNA derived from human cell line K562 as a template, with the influence on the PCR result caused by varying the concentration of oxalate ion being investigated. PCR was performed by using GeneAmp2400 (PE Applied Biosystems) with the following conditions: 1 preliminary reaction of 94° C. for 2 minutes, and then 35 cycles of 94° C. for 15 seconds, 60° C. for 30 seconds and 68° C. for 8 minutes.
Salts (potassium chloride, potassium acetate, potassium oxalate, potassium sulfate) were tested for their effectiveness in PCR using nPfu DNA polymerase under the same conditions as Example 1-5.

[5] = biological target: T3, Taq DNA polymerase (Thermus aquaticus, UniProt P19821); assay: PCR using Taq DNA polymerase with added oxalate ion (Example 1-4); format: biochemical; conditions: for PCR amplification of 4.5-kb DNA of myelin oligodendrocyte glycoprotein: FIG. 5; for PCR amplification of 3.6-kb DNA of β-globin: FIG. 4
T3 construct: purchased TOYOBO CO., LTD
T3 sequence (P19821 whole entry): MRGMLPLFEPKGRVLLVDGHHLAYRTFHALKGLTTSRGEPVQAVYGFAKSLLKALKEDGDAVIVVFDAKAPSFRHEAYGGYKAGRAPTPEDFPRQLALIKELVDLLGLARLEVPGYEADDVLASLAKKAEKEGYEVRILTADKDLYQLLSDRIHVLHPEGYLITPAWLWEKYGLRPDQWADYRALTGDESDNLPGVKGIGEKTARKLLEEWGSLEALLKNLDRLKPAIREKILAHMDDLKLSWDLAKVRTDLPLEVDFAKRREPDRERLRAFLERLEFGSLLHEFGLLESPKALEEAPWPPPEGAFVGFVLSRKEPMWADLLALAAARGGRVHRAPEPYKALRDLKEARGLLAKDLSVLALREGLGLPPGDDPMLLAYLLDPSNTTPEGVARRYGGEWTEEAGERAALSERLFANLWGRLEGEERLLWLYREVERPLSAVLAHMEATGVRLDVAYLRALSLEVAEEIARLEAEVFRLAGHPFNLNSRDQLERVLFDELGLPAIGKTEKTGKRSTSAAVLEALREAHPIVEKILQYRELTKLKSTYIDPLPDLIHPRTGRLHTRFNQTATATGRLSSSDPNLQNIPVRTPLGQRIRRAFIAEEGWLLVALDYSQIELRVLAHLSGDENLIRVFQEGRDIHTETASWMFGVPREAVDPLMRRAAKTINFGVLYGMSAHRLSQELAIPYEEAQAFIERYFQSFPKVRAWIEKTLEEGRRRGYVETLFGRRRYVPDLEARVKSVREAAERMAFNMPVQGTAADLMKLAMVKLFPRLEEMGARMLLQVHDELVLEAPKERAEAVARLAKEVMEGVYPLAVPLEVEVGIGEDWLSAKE
Description: The effect produced by the addition of oxalate ions was investigated in PCR using Taq DNA polymerase. A PCR buffer (10 mM Tris-HCl (pH 8.3), 50 mM KCl, 1.5 mM MgCl2) attached to Taq (TOYOBO CO., LTD.), 0.2 mM dNTPs and 0.3 μM of a primer pair were used. A pair of primers of SEQ ID Nos:10 and 11 was used for the PCR amplification of a 3.6-kb DNA of β-globin cluster (the electrophoresis pattern of its PCR product is shown in FIG. 4), while a pair of primers of SEQ ID Nos:12 and 13 was used for the PCR amplification of a 4.5-kb DNA of myelin oligodendrocyte glycoprotein (the electrophoresis pattern of its PCR product is shown in FIG. 5). The influence of varying the concentration of oxalate ions added on the PCR results was investigated using 2.5 U Taq DNA polymerase and 20 ng of Genomic DNA derived from cultured human cell K562 as a template. The PCR conditions were as follows: 94° C. for 2 minutes as 1 preliminary reaction, and then 30 cycles of 94° C. for 15 seconds, 60° C. for 30 seconds and 68° C. for 8 minutes. The PCR amplification was performed by using GeneAmp 2400 (PE Applied Biosystems).

[6] = K562 genomic DNA template, FIG. 1

## O=C[O-].[K+] [potassium formate, reference compound]
[1]; carboxylate salts, FIG. 3
  amplification of target DNA (electrophoresis pattern): A similar effect to that produced by oxalate salts was not observed

## O=C([O-])/C=C\C(=O)[O-].[Na+].[Na+] [sodium maleate]
[2]; 4 mM salt
  effect on extra bands: extra bands tended to decrease
[2]; 10 mM salt
  effect on extra bands: most of the extra bands disappeared

## O=C([O-])CCC(=O)[O-].[K+].[K+] [potassium succinate, reference compound]
[1]; carboxylate salts, FIG. 3
  amplification of target DNA (electrophoresis pattern): A similar effect to that produced by oxalate salts was not observed

## O=C([O-])C(=O)[O-].[Na+].[Na+] [sodium oxalate]
[2]
  amplification of target DNA (electrophoresis pattern): Amplification was observed
[1]; carboxylate salts, FIG. 3
  amplification of target DNA (electrophoresis pattern): amplification of the target DNA was observed
[1]; salt at 4 to 6 mM of ion equivalent, FIG. 2
  amplification of target DNA (electrophoresis pattern): Amplification was observed

## O=C(O)C(=O)O [oxalate ion]
[3]
  concentration range within which the effect of the addition of oxalate ion is found: up to 5 mM
[4]
  concentration range within which the effect of the addition of oxalate ion is found: up to 5 mM
[4]; FIG. 6
  oxalate ion concentration at which amplification of the target DNA was observed: 2 to 5 mM
[5]
  concentration range within which the effect of the addition of oxalate ion is found: up to 5 mM
[5]; 1 mM oxalate ion
  PCR amplification of 4.5-kb DNA of myelin oligodendrocyte glycoprotein: amplification of the target DNA was observed together with a smear
[5]; 2 mM oxalate ion
  PCR amplification of 3.6-kb DNA of β-globin: amplification of the target sequence was observed together with a smear
  PCR amplification of 4.5-kb DNA of myelin oligodendrocyte glycoprotein: no smear was observed
[5]; 4 mM oxalate ion
  PCR amplification of 3.6-kb DNA of β-globin: no smear was observed
[5]; 3.6-kb DNA of β-globin
  oxalate ion concentration giving a discrete amplification band: 4 to 5 mM
[5]; 4.5-kb DNA of myelin oligodendrocyte glycoprotein
  oxalate ion concentration giving a discrete amplification band: 2 to 5 mM
[1]
  concentration range of oxalate ion within which the effect of the addition is found: up to 4 mM
[1]; [6]
  oxalate ion amount at which amplification of the target DNA was confirmed: 1 to 4 mM
  oxalate ion concentration at which the amount of amplification was the highest: 2 to 3 mM

## O=C([O-])CC(=O)[O-].[Na+].[Na+] [sodium malonate]
[2]; 2 mM salt
  effect on extra bands: the extra bands tended to decrease
[2]; 6 mM salt
  effect on extra bands: most of the extra bands disappeared

## [Cl-].[K+] [potassium chloride, reference compound]
[2]
  amplification of target DNA (electrophoresis pattern): Amplification of the target DNA was not observed
[4]
  amplification of target DNA (electrophoresis pattern): amplification of the target DNA was not observed

## CC(=O)[O-].[K+] [potassium acetate, reference compound]
[2]
  amplification of target DNA (electrophoresis pattern): Amplification of the target DNA was not observed
[4]
  amplification of target DNA (electrophoresis pattern): amplification of the target DNA was not observed

## O=S(=O)([O-])[O-].[K+].[K+] [potassium sulfate, reference compound]
[2]
  amplification of target DNA (electrophoresis pattern): Amplification of the target DNA was not observed
[4]
  amplification of target DNA (electrophoresis pattern): amplification of the target DNA was not observed
